Earlier results on two compounds are cited in PMC11542186, “Pin1 WW Domain Ligand Library Synthesized with an Easy Solid-Phase Phosphorylating Reagent” (Biochemistry, 2024).

Where a SMILES comes first, the peptide text is derived from it. [ ]: non-standard residue; d: D form. pT = C[C@@H](OP(=O)(O)O)[C@H](N)C(=O)O

Data set [1] concerns the target isolated Pin1 WW domain. Details: method as in PMID 16033261. To be noted: measured by NMR for the isolated Pin1 WW domain; cited from earlier work.
The target in data set [2] is full-length Pin1. Set-up: method as in PMID 10932246. To be noted: read-out: affinity for full-length Pin1; cited from earlier work.
For data set [3], the system named is Pin1 catalytic domain. Set-up: method as in PMID 10932246. Conditions: cited from earlier work.
For data set [4], the target named is Pin1 WW domain. Set-up: method as in PMID 10932246. To be noted: read-out: affinity for the WW domain; cited from earlier work.

As for `CC(=O)N[C@H](C(=O)N1CCC[C@H]1C(N)=O)[C@@H](C)OP(=O)(O)O` [Ac–pThr–Pro–NH2] (Ac-[pT]-Pro-NH2), the Kd in data set [1] is 150 µM.
Consider Fmoc–VPRpTPVGGGK–NH2 [Compound L1], for which the Kd in data set [2] is 4.9 µM; in data set [4], 7.7 µM. For the same compound, in data set [3], the “binding to the catalytic domain” value is “no binding”.
